# Test results taken from publication PMC11091832 (Journal of medicinal chemistry, 2021).
# Where two headings read alike, the source gives them in different places.
# How the values were obtained:
# hD2LR [1] = target: T1, hD2LR (Homo sapiens, UniProt P14416); assay: Radioligand binding, agonist [3H]-; details: for (D3R/D2R) Ki ratio, [3H]-(R)-(+)-7-OH-DPAT: selectivity for D2R, value printed in parentheses
# hD3R [2] = target: T2, hD3R (Homo sapiens, UniProt P35462); assay: Radioligand binding, agonist [3H]-
# T2 sequence (P35462 whole entry): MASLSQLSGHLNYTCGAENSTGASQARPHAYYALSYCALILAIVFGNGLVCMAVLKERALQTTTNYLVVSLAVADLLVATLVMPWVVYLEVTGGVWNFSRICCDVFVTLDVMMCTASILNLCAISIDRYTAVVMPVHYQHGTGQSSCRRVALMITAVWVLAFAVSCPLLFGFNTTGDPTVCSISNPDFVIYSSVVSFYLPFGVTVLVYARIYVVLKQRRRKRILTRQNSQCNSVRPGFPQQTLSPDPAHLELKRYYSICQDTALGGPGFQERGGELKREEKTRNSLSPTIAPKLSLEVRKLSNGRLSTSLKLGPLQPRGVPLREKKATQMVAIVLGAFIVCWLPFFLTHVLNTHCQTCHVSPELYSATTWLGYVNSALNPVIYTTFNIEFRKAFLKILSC
# hD3R [3] = target: T2, hD3R
# hD2LR [4] = target: T1, hD2LR
# T1 sequence (P14416 whole entry): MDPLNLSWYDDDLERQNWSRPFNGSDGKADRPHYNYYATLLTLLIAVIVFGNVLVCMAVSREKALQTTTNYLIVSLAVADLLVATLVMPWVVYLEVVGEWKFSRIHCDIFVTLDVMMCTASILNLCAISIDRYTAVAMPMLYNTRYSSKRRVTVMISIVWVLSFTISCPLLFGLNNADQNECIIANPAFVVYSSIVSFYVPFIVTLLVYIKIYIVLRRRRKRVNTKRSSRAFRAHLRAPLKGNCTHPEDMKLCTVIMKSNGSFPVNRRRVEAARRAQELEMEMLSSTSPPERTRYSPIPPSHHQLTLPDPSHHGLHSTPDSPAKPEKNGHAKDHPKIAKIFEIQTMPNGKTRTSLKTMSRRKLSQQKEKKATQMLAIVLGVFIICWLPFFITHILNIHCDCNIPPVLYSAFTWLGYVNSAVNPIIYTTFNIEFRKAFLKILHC
"(D3R/D2R) Ki ratio, [3H]-(R)-(+)-7-OH-DPAT (hD2LR [1])",Ki (hD3R [2]),Ki (hD3R [3]),Ki (hD2LR [4]),Ki (hD2LR [1]),Structure (SMILES)
(17),–,–,–,–,"CN(CC[C@@H]1CC[C@@H](CNC(=O)c2cc3ccccc3[nH]2)C1)[C@@H]1Cc2cccc3[nH]c(=O)n(c23)C1 (relative stereo) [rel-trans-16b, N-((3-(2-(Methyl((R)-2-oxo-1,2,5,6-tetrahydro-4H-imidazo[4,5,1-ij]quinolin-5-yl)amino)ethyl)cyclopentyl)methyl)-1H-indole-2-carboxamide]"
(9.6),–,–,–,–,"CN(CC[C@@H]1CC[C@H](CNC(=O)c2cc3ccccc3[nH]2)C1)[C@@H]1Cc2cccc3[nH]c(=O)n(c23)C1 (relative stereo) [rel-cis-16a, N-((3-(2-(Methyl((R)-2-oxo-1,2,5,6-tetrahydro-4H-imidazo[4,5,1-ij]quinolin-5-yl)amino)ethyl)cyclopentyl)methyl)-1H-indole-2-carboxamide]"
–,7.41 ± 0.323 nM,104 ± 7.65 nM,7.92 ± 0.772 µM,55.9 ± 4.78 nM,"C[C@H]1CO[C@@H](c2ccc(N)nc2)CN1CC=C1CCC(CNC(=O)c2cc3ccccc3[nH]2)C1 (mixture of isomers) [Compound 15, N-((3-(2-((2S,5S)-2-(6-Aminopyridin-3-yl)-5-methylmorpholino)ethylidene)cyclopentyl)methyl)-1H-indole-2-carboxamide]"
